# Reference: US20170367338A1, “COMPOSITIONS AND METHODS FOR IMPROVING AGRONOMIC CHARACTERISTICS OF PLANTS” (MONSANTO TECHNOLOGY LLC, priority 2014, published 2017)
# Where two headings read alike, the source gives them in different places. Marks after values point to notes of the source that are not given here.
# Experiments:
# [1] = tested on: Meloidogyne incognita; experiment: M. incognita miniaturized greenhouse assay on cucumber seedlings; assay type: in vivo
# Experimental: The test compound is dissolved in an acetone solution and added to water. A sprouted cucumber seedling is placed into a vial with dry sand and the water-chemical solution is added immediately. Twenty four hours later Meloidogyne incognita eggs are added to the vials and 10 to 12 days later the roots are evaluated for nematode galling.
# Cucumber seeds are sprouted for 3 days in moist paper towels. Acceptable sprouts should be 3 to 4 cm long with several lateral roots just emerging. Stock solutions of chemistry are prepared in a mixture of acetone and Triton X100 (412 mg in 500 mL) to a final concentration of 5 mg/mL. The chemical stock solution is then added to 10 mL deionized water plus 0.015% Triton X100 and mixed thoroughly. This is enough to test each condition in triplicate. Ten mL dry sand is added to each vial. At this time the solubility of the chemistry is visually determined and recorded as either ppt (large precipitates) or cloudy (fine precipitates). Seedlings are planted by tilting the vial and laying the seedling in the correct orientation so that the cotyledons are just above the sand and then tilting back to cover the radicles with sand. 3.3 ml water/chemical mix is added to each vial and the vials placed in racks under fluorescent light banks. The vials are inoculated two days after planting by adding 500 vermiform M. incognita eggs to each vial in 50 uL of deionized or spring water. The vials are then kept under the fluorescent lamps at ambient room temperature and watered as needed with 1mL deionized water, usually twice during duration of test. Harvest of the cucumber plants is done 10 to 12 days after inoculation by washing sand off the roots. A root gall rating and visual phytotoxicity rating is assigned using the following scales: Gall rating scale (Gall: % root mass galled): 0=0-5%; 1=6-20%; 2=21-50%; and 3=51-100%. The average of the triplicate gall rating is then calculated: green=0.00-0.33 (no galls); yellow=0.67-1.33 (mild galling); orange=1.67-2.33 (moderate galling); red=2.67-3.00 (severe galling). Visual phytotoxicity scale is also assigned (Vis. tox; visual reduction in root mass compared to the control): rs1=mild stunting; rs2=moderate stunting; rs3=severe stunting.
# [2] = tested on: Meloidogyne incognita; experiment: Summer field evaluation of pre-plant incorporated compounds on squash; assay type: in vivo; settings: squash
# Experimental: Test plots of 33 cm diameter holes were bored 41 cm deep into clay soil and filled with a mixture of 80% sand and 20% silt loam soil. Technical compound for each treatment was dissolved in 50 ml acetone containing 250 ul of Triton X-100 surfactant. This solution was added to 450 ml water and poured onto 95 liters of sand/soil mixture in a rotating drum mixer. While continuing to rotate the mixing drum 66 grams of chopped, galled, tomato roots was added and thoroughly distributed. The treated soil was sufficient to fill the top 15 cm of each of the 6 replicate plots, thus simulating a PPI treatment. The plots were then watered lightly and a mixture of M. incognita eggs and larvae were injected 5 cm deep at 5 points within the plot (100k eggs/larvae in 10m1 per plot). Three-week old squash (cv. Liberator III) with 1 fully expanded true leaf was planted 4 days after soil treatment, one per plot.
# [3] = tested on: Heterodera glycines (SCN); experiment: Seed treatment test of soybean cyst nematode on soybean; assay type: in vivo; settings: Heterodera glycines, 672 h, read-out: percent cyst reduction relative to control blank treatment
# Experimental: For a given concentration the chemical is dissolved in 500 ul of acetone and one gram of cucumber seed (RKN test) or soybean seed (SCN test) is added (e.g., 20 mg active ingredient in 500 ul acetone plus 1 gram of seed). The seed solutions are agitated until all seeds were thoroughly covered with the chemical solution. The acetone is then allowed to evaporate by air drying the seeds. The seeds are planted in 2-inch pots containing sandy soil and then the pots are inoculated with 1000 Meloidogyne incognita (RKN) or 1000 Heterodera glycines (SCN) eggs per pot three days after planting. Plants are rated for galling 14 days after egg inoculation for RKN or 28 days after egg inoculation for SCN.
# [4] = tested on: Meloidogyne incognita; experiment: Fall nematicidal field test on squash; settings: squash
# Description: The soil was a native prairie/pasture covering silty clay loam soil. […] Total volume of each hole was about 1.2 cubic feet. […] Holes were filled and then re-filled 5 days later after settling. […] Organic matter was 0.2% and pH was 6.8.
# Treatments were arranged in a block design with the blocks laid out perpendicular to the primary slope and parallel to secondary slope. There are 7 inoculated controls and 5 non-inoculated controls and the distributions of disease severity appeared independent of location.
# The resultant mix is the same as used in the standard greenhouse assays (10% acetone, 0.05% X100). The oxamyl treatments were prepared from Vydate 2L formulated the same way. The 500 ml was placed in a watering can and the entire volume was evenly sprinkled over the surface of the plot. No runoff occurred and pooling, if any, was short lived. The final drench volume was 0.58 ml/cm^2, compared to 0.2 ml/cm^2 used in our greenhouse, however the microplots are much deeper so the drench volume applied per soil volume treated is roughly the same.
# Meloidogyne incognita eggs were harvested over a two week period and stored at approximately 5° C. until needed. A stock of 5.6 million vermiform eggs was adjusted to 9000/m1 in 620 ml. One day after treatment, two holes were made in each plot about 7 cm apart and equidistant from the squash plants. Five ml of egg suspension was pipetted into each hole, which was then sealed and the plot lightly watered. A total of 90,000 vermiform eggs were added to each plot.
# The first root evaluation was at 28 DAT. The tops were cut off and weighed immediately in the field, and the roots were carefully dug out so as not to disturb the remaining plant.
# [5] = tested on: soybean cyst nematode (SCN); experiment: SCN greenhouse sand assay on soybean plants; assay type: in vivo; settings: Glycine max, 672 h; 2 kg/ha; test a; read-out: percent control (cyst number reduction) relative to the control blank treatment
# Description: Soybeans seeds are planted in 100% sand in two inch square plastic pots. Chemical treatment is done when the soybeans show the first trifoliate beginning to emerge about 10 to 12 days after planting. At least four hours after chemical application the nematode soybean cyst nematode (SCN) eggs are applied and 28 days after the egg inoculation the test is harvested.
# One milligram of chemistry per four pots is equal to one kilogram per hectare of chemical. A standard test uses four replications. For rates above 2 kg/ha, the desired amount of chemical is weighed into a 30 ml vial (example: 8 kg/ha rate =8 mg chemical in 30 ml vial). The chemical is dissolved in 2 ml of appropriate solvent, generally acetone. For rates below 2 kg/ha, 2 milligrams of chemistry is weighed into the vial and dissolved in 2 ml of the solvent. The appropriate amount of chemical concentrate is then pipetted into a separate 30 ml vial and solvent is added to bring the volume to 2 ml (example 0.5 kg/ha=0.5 ml of concentrate+1.5 ml solvent). Each dissolved concentrate is then brought to a total of 20 milliliters using 0.05% Triton X 100 surfactant solution.
# Pots to be treated are moist but not saturated. To each of four pots, five milliliters of the appropriate chemical solution is pipetted to the media surface making sure to avoid contact with the base of the plant. Immediately following chemical application, using a mist nozzle, the pot surface is wetted sufficiently to saturate the pot watering in the chemistry. The chemical application is done in the morning.
# Nematode eggs, either SCN or RKN, are added to distilled water to create a concentration of 1000 vermiform eggs […]. At least four hours after chemical treatment the eggs are applied to the treated pots plus non-treated check plants. A small hole about 1 cm deep is punched into the pot surface. One milliliter of the nematode egg slurry is pipetted into the hole. Immediately afterwards the hole is gently covered. Watering of the test plants is then restricted to only water as needed to prevent wilt for a period of 24 hours. After the 24 hour restricted watering, normal sub-irrigation watering is done for the duration of the test.
# [6] = tested on: root knot nematode; experiment: Pre-plant incorporated (PPI) greenhouse test of root knot nematode on cucumber plants; assay type: in vivo; settings: 168 h, seven day pre-plant incorporated
# Description: The PPI test examines the effect of pre-incorporation of compounds in soil and longer aging to simulate in furrow methods of nematicide application in the field. The PPI test exposes compounds to a higher volume of soil and drying which can result in more severe soil binding. Compounds are also aged for longer periods which can lead to more extensive biotic and abiotic degradation further limiting activity.
# The chemically treated soil (sandy soil mix) for all treatment days (e.g., 7 days, 14 days, 21 days) treatments is potted into their appropriate pots. On the same day the 7 day treatment pots are seeded. One week later eggs are applied and 14 days after egg application the test is harvested. The 14 day treatments are planted 7 days after the first planting. The 14 day planting and 7 day inoculation happen on the same day. One week later the 14 day treatments are inoculated with eggs. These are harvested 14 days after the inoculation. The 21 day treatments are planted 14 days after the first planting. The 14 day inoculation and 21 day planting are done on the same day. One week later the 21 day plants are inoculated with eggs. The 7 day treatment is harvested the same day as the 21 day inoculation. Fourteen days after inoculation the 21 day plants are harvested.
# For each compound a stock is prepared using 4 mg material in 4 ml of acetone. The soil is mixed by placing 80 ml of field soil and 320 ml of sand in a plastic bag and mixing well. The formulation for treatment is done by adding 2.13 ml (8 kg/ha rate), 1.06 ml (4 kg/ha rate) or 0.53 ml (2 kg/ha rate) to a vial and raising it with 10 ml in 0.05% X100. Soil is then treated by adding the entire 10 ml to the 400 ml of mix in the bag. The treated soil is immediately mixed well in the sealed bag to distribute the compound evenly. Approximately 95 ml is used to fill each 2-inch square pot up to the top with some soil compression and flattening. For each compound and for the control treatments 4 pots are filled. All pots are watered until moist but with no run-out through the bottom.
# The PPI test simulates 8, 4 and 2 kg/ha rates incorporated 15 cm deep in the field and is equivalent to the 2, 1 and 0.5 kg/ha drench application rates in the standard 2-inch pot cucumber greenhouse assay.
# [7] = tested on: C. elegans; experiment: Three day C. elegans well assay; assay type: in vivo; settings: for EC50: Caenorhabditis elegans
# Experimental: Various compounds were tested for nematicidal activity against C. elegans using contact assays in wells. The assays were performed as described below. The test compounds were solubilized in DMSO at 10 mg/ml to create 100× stock solutions. A dilution series was created by diluting the stock solution with DMSO. For each well assay 4 ul of the appropriate dilution is added to a well of a test plate. A 400 ul aliquot of bacterial stock (in M9 buffer with ampicillin and nystatin) are added to each well of the test plate. Worms are added and the test plate placed on a rotary shaker and held at 20° C. Worms are examined and scored at 4 hrs, 24 hrs, 48 hrs and 72 hours. L1 worms and L4 worms were used in the assay. L1 worms are prepared by plating eggs on a plate without a bacterial feeding layer. The eggs hatch and arrest at the L1 stage. This L1 stage population is then used to create a stock for the experiments. To create an L4 stage stock a small number of worms are taken from an overgrown and starved plate of worms and seeded on a plate with a bacterial feeder layer. A 25 ul aliquot of worms is added to each well in the assay.
structure (smiles),measurement,setting,value
c1ccc(-c2cc(-c3ccco3)n[nH]2)cc1 [3-(furan-2-yl)-5-phenyl-1H-pyrazole],nematicidal activity,"[1]; text reference to table 1D, 8 ppm and 1 ppm",at 8 ppm but not 1 ppm
CNC(=O)O/N=C(\SC)C(=O)N(C)C [Oxamyl],0-3 vigor 16DAP,[2]; 4 kg/ha PPI,2.7
same,0-3 vigor 21DAP,[2]; 4 kg/ha PPI,2.5
same,feeder root (3 = ave) 31DAP,[2]; 4 kg/ha PPI,3.0
same,gall % 31DAP,[2]; 4 kg/ha PPI,85%
same,root wgt (g) 31DAP,[2]; 4 kg/ha PPI,37.0 g
same,top wgt (lbs) 31DAP,[2]; 4 kg/ha PPI,1.16 lbs
same,total fruit (lbs),[2]; 4 kg/ha PPI,1.09 lbs
same,pest or weed control at 0.375 mg/g,[3],-4%
same,pest or weed control at 1.5 mg/g,[3],71%
same,RG28 % root galls at 28 days after treatment,[4]; 2 kg ai/ha,45.0%
same,RG43 % root galls at 43 days after treatment,[4]; 2 kg ai/ha,42.3%
same,RW28 root weight at 28 days after treatment,[4]; 2 kg ai/ha,5.6
same,RW43 root weight at 43 days after treatment,[4]; 2 kg ai/ha,14.3
same,TW28 top weight at 28 days after treatment,[4]; 2 kg ai/ha,136.8
same,RG28 % root galls at 28 days after treatment,[4]; 5 kg ai/ha,10.5%
same,RG43 % root galls at 43 days after treatment,[4]; 5 kg ai/ha,17.3%
same,RW28 root weight at 28 days after treatment,[4]; 5 kg ai/ha,6.6
same,RW43 root weight at 43 days after treatment,[4]; 5 kg ai/ha,12.7
same,TW28 top weight at 28 days after treatment,[4]; 5 kg ai/ha,232.1
same,gall ratings,"[1]; 1 ppm (oxamyl), Table 1A",0.67
same,1 ppm gall ratings,[1]; Table 1B test a,0.67
same,1 ppm gall ratings,[1]; Table 1B test b,1 (1=6-20%)
same,1 ppm gall ratings,[1]; Table 1B test c,1.33
same,1 ppm gall ratings,[1]; Table 1B test d,1.33
same,1 ppm gall ratings,[1]; Table 1B test e,1 (1=6-20%)
same,1 ppm gall rating,[1]; Table 1C test a,1.33
same,1 ppm gall rating,[1]; Table 1C test b,1 (1=6-20%)
same,1 ppm gall rating,[1]; Table 1C test c,0.67^c
same,1 ppm gall rating,[1]; Table 1D test a,1.33
same,1 ppm gall rating,[1]; Table 1D test b,1 (1=6-20%)
"CS/C(C)=N\OC(=O)N(C)SN(C)C(=O)O/N=C(\C)SC [Thiodicarb, reference compound]",pest or weed control at 0.375 mg/g,[3],6%
same,pest or weed control at 1.5 mg/g,[3],-23%
FC(F)(F)c1cccc(-c2noc(-c3ccco3)n2)c1 [compound 5181],pest or weed control at 2000 g/ha,[5],100%
FC(F)(F)c1ccc(-c2noc(-c3cccs3)n2)cc1 [compound 5213],pest or weed control at 4000 g/ha,"[6]; 4 kg/ha, read-out: percent control (galling reduction), 4 kg/ha rate",85%
same,pest or weed control at 8000 g/ha,"[6]; 8 ka/ha, read-out: percent control (galling reduction), 8 ka/ha rate",98%
c1cncc(-c2noc(-c3ccco3)n2)c1 [compound 5292],pest or weed control at 2000 g/ha,[5],92%
Fc1ccc(-c2noc(-c3cccs3)n2)c(F)c1 [compound 5847],pest or weed control at 0.375 mg/g,"[3]; 0.375 mg ai/gram seed, test b",66%
same,pest or weed control at 1.5 mg/g,"[3]; 1.5 mg ai/gram seed, test b",80%
same,EC50,"[7]; 48 h, L1 larvae, two days of exposure, read-out: EC50 L1 2D",0.4 µg/mL
same,EC50,"[7]; 48 h, L4 larvae, two days of exposure, read-out: EC50 L4 2D",1.6 µg/mL
same,EC50,"[7]; 72 h, L1 larvae, three days of exposure, read-out: EC50 L1 3D",0.4 µg/mL
same,EC50,"[7]; 72 h, L4 larvae, three days, effects on the second generation larvae, read-out: EC50 L4 3D (F1)",1.6 µg/mL
same,EC50 L1 1D,"[7]; L1 larvae, one day of exposure",no
same,EC50 L4 1D,"[7]; L4 larvae, one day of exposure",no
Cc1occc1-c1nc(-c2ccc(Cl)cc2)no1 [compound 5867],1 ppm gall rating,[1]; Table 1C test a,1 ^a (1=6-20%)
COc1ccc(-c2noc(-c3ccoc3C)n2)cc1 [compound 5869],1 ppm gall rating,[1]; Table 1C test a,1 ^a (1=6-20%)
Fc1cc(F)c(-c2noc(-c3cccs3)n2)c(F)c1 [compound 5878],pest or weed control at 0.375 mg/g,"[3]; 0.375 mg ai/gram seed, test b",43%
same,pest or weed control at 1.5 mg/g,"[3]; 1.5 mg ai/gram seed, test b",77%
Fc1cc(Cl)ccc1-c1nsc(-c2ccco2)n1 [compound 5953],pest or weed control at 0.375 mg/g,"[3]; 0.375 mg ai/gram seed, test b",44%
same,pest or weed control at 1.5 mg/g,"[3]; 1.5 mg ai/gram seed, test b",77%
CCOP(=O)(SC(C)CC)N1CCSC1=O (stereo not shown) [fosthiazate],0-3 vigor 16DAP,[2]; 2 kg/ha PPI,3.0
same,0-3 vigor 21DAP,[2]; 2 kg/ha PPI,3.0
same,feeder root (3 = ave) 31DAP,[2]; 2 kg/ha PPI,2.3
same,gall % 31DAP,[2]; 2 kg/ha PPI,5%
same,root wgt (g) 31DAP,[2]; 2 kg/ha PPI,26.4 g
same,top wgt (lbs) 31DAP,[2]; 2 kg/ha PPI,2.01 lbs
same,total fruit (lbs),[2]; 2 kg/ha PPI,1.25 lbs
